Experimental data as given in patent US9751861B2, “N1-(3,3,3-trifluoro-2-hydroxo-2-methylpropionyl)-piperidine derivatives as inhibitors of pyruvate dehydrogenase kinase” (MERCK PATENT GMBH, priority 2013, dated 2017).

How the values were obtained:
PDHK2 = target: T1, PDHK2 (Homo sapiens, UniProt Q15119); test: Biochemical activity testing of PDHK2: PDC inactivation assay; conditions: human rec PDHK2, PDC from porcine heart, ATP 5 μM; read-out: IC50 PDHK2 (enzyme assay)
T1 construct: purchased Carna Bioscience
Outline: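 Human recombinant PDHK2 (137 nM final) preincubated 30 min at RT with porcine heart PDC (20 mU/ml) and compound in pH 7.0 phosphate buffer, then phosphorylated with 5 μM ATP for 30 min at 37 °C. Residual PDC activity read as NADH fluorescence increase (Ex 340/Em 450) over 45 min; inhibitor-free reaction as full value, 3 mM DCA as zero, IC50 derived.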

human PDHK2 (12-407) = target: T2, human PDHK2 (12-407) (Homo sapiens, UniProt Q15119); test: Isothermal titration calorimetry (ITC) binding; conditions: 30° C., pH 7.5
T2 construct: The human PDHK2 (12-407) was produced in E. coli; His-tag (cleaved yes); made in house; host or cells: E. coli
Procedure: Isothermal Titration Calorimetry
ITC measurements were performed with a VP-ITC micro calorimeter (Microcal, LLC/GE Healthcare Bio-Sciences AB, Uppsala, Sweden). In general titrations were performed by titrating the protein (50 μM) to the test compound (5 μM) in 12 μl injections. All binding experiments were carried out at 30° C. In general the test compounds were diluted form DMSO stock solutions into the measurement buffer with a maximum final concentration of 1% DMSO. The measurement buffer was 20 mM HEPES, 135 mM KCl, 1 mM TCEP, 2 mM MgCl2, 15 mM NaH2PO4, pH 7.5. The human PDHK2 (12-407) was produced in E. coli as his-tagged protein and purified by affinity chromatography. The tag was removed by side specific proteolysis. Before titration the protein buffer was changed to the measurement buffer containing the same DMSO concentration as the test compound dilution. ITC data analysis was performed using Origin 7 calorimetry software from the same supplier. For most measurements a binding model of one binding site was assumed. According to the applied mathematical model it is possible to calculate the binding constant (KA), the observed binding enthalpy (ΔH^obs) as well as the stoichiometry (N) of the formed complex. Preceding analysis the raw data was corrected for the heats of dilution by extrapolating from the saturation value from the end of titration. In order to allow for direct comparison between the respective experimental series and protein preparations the protein concentration was corrected by referencing titrations to a well behaved standard inhibitor. The apparent stoichiometry values defined the fraction of binding competent protein and compensated for relative errors in protein concentration measurements. This corrected protein concentration was used to set up ITC experiment series with test compounds. Any deviations from ideal 1:1 stoichiometry observed here were attributed to errors in compound concentration. This nominal compound concentration was corrected as well to achieve 1:1 stoichiometry in the fit.

PDH-Elalpha (pSer300) = test: Cellular immunofluorescence assay in HEK293T cells; format: cell-based; conditions: Homo sapiens, HEK-293T, 5 hours incubation, anti-PDH-E1alpha pSer300 immunofluorescence, read-out: IC50 (cell data)
Procedure: Cellular Assay for Determination of Compound Activities
Compound activities were determined in a cellular immunofluorescence assay. Human HEK293T cells were seeded into black 384-well plates with clear bottom and grown overnight.
Next day, test compounds were added to the wells and the plates incubated for 5 hours. Following this, cells were fixed with formaldehyde, permeabilised and blocked. The primary antibody, Anti-PDH-Elalpha (pSer300), AP1064 (Merck Millipore) was added and incubated overnight in the plate wells. Next, cells were washed and the seconday antibody, Alexa Fluor 488, goat anti-rabbit ab (A-11008, Invitrogen) was added together with Hoechst 33258 (H3569, Invitrogen) and incubated for 1 hour in the plate wells. Finally, cells were washed and the plates were measured on the laser scanning cytometer acumen hci (TTpLabtech).
The raw data were normalized against a pharmacological inhibitor control and dose response curves were generated by plotting the percent effect values using the software package Genedata screener (Genedata).

| SMILES | IC50 (PDHK2) [µM] | Kd (human PDHK2 (12-407)) [µM] | IC50 (PDH-Elalpha (pSer300)) [µM] |
| --- | --- | --- | --- |
| C[C@@](O)(C(=O)N1CCC(c2ccn(-c3ccc(C(F)(F)F)cn3)n2)CC1)C(F)(F)F [Compound A102, (R)-3,3,3-Trifluoro-2-hydroxy-2-methyl-1-{4-[1-(5-trifluoromethyl-pyridin-2-yl)-1 H-pyrazol-3-yl]-piperidin-1-yl}-propan-1-one] | 3 to 50 | 0.3 to 3 | 3 to 50 |
| C[C@@H]1CN(C(=O)[C@@](C)(O)C(F)(F)F)CC[C@@H]1c1ccn(-c2ccc(F)cc2)n1 [Compound A46, (R)-3,3,3-Trifluoro-1-{(3S,4S)-4-[1-(4-fluoro-phenyl)-1H-pyrazol-3-yl]-3-methyl-piperidin-1-yl}-2-hydroxy-2-methyl-propan-1-one] | < 0.3 | < 0.3 | 0.3 to 3 |
| C[C@@](O)(C(=O)N1CCC(c2ccnn2-c2ccc(OC(F)F)cc2)CC1)C(F)(F)F [Compound A96, (R)-1-[4-[2-[4-(Difluoromethoxy)phenyl]-2H-pyrazol-3-yl]-1-piperidyl]-3,3,3-trifluoro-2-hydroxy-2-methyl-propan-1-one] | 0.3 to 3 | < 0.3 | 0.3 to 3 |
| CC1CN(C(=O)[C@@](C)(O)C(F)(F)F)CCC1c1ccnn1-c1ccc(F)cc1F (mixture of isomers) [Compound A31, (R)-1-{4-[2-(2,4-difluoro-phenyl)-2H-pyrazol-3-yl]-3-methyl-piperidin-1-yl}-3,3,3-trifluoro-2-hydroxy-2-methyl-propan-1-one] | < 0.3 | < 0.3 | < 0.3 |
| CC(C)(O)c1ccc(-n2nccc2C2CCN(C(=O)[C@@](C)(O)C(F)(F)F)CC2)c(F)c1 [Compound A92, (R)-3,3,3-Trifluoro-1-[4-[2-[2-fluoro-4-(1-hydroxy-1-methyl-ethyl)phenyl]-2H-pyrazol-3-yl]-1-piperidyl]-2-hydroxy-2-methyl-propan-1-one] | 0.3 to 3 | < 0.3 | 0.3 to 3 |
| Cc1cc(C2CCN(C(=O)[C@@](C)(O)C(F)(F)F)CC2)n(-c2ccccc2)n1 [Compound A98, (R)-3,3,3-Trifluoro-2-hydroxy-2-methyl-1-[4-(5-methyl-2-phenyl-2H-pyrazol-3-yl)-piperidin-1-yl]-propan-1-one] | < 0.3 | < 0.3 | 0.3 to 3 |
| C[C@@](O)(C(=O)N1CCC(c2ccnn2-c2ccc(Cl)c(F)c2)CC1)C(F)(F)F [Compound A100, (R)-1-{4-[2-(4-Chloro-3-fluoro-phenyl)-2H-pyrazol-3-yl]-piperidin-1-yl}-3,3,3-trifluoro-2-hydroxy-2-methyl-propan-1-one] | 0.3 to 3 | < 0.3 | 0.3 to 3 |
| C[C@@H]1CN(C(=O)[C@@](C)(O)C(F)(F)F)CC[C@@H]1c1ccnn1-c1ccc(F)cc1 [Compound A107, (R)-3,3,3-Trifluoro-1-{(3S,4S)-4-[2-(4-fluoro-phenyl)-2H-pyrazol-3-yl]-3-methyl-piperidin-1-yl}-2-hydroxy-2-methyl-propan-1-one] | < 0.3 | < 0.3 | < 0.3 |
| C[C@@](O)(C(=O)N1CCC(c2ccnn2-c2ccc(C(F)(F)F)cc2F)CC1)C(F)(F)F [Compound A88, (R)-3,3,3-Trifluoro-1-[4-[2-[2-fluoro-4-(trifluoromethyl)phenyl]-2H-pyrazol-3-yl]-1-piperidyl]-2-hydroxy-2-methyl-propan-1-one] | 0.3 to 3 | < 0.3 | 0.3 to 3 |
| C[C@@](O)(C(=O)N1CCC(c2ccnn2-c2ccc(C(F)(F)F)cc2Cl)CC1)C(F)(F)F [Compound A18, (R)-1-{4-[2-(2-Chloro-4-trifluoromethyl-phenyl)-2H-pyrazol-3-yl]-piperidin-1-yl}-3,3,3-trifluoro-2-hydroxy-2-methyl-propan-1-one] | < 0.3 | < 0.3 | 0.3 to 3 |
| C[C@@](O)(C(=O)N1CCC(c2conc2-c2ccc(F)cc2)CC1)C(F)(F)F [Compound A129, (R)-3,3,3-Trifluoro-1-{^4-[3-(4-fluoro-phenyl)-isoxazol-4-yl]-piperidin-1-yl}-2-hydroxy-2-methyl-propan-1-one] | 0.3 to 3 | < 0.3 | 3 to 50 |
| Cc1csc(-n2nccc2C2CCN(C(=O)[C@@](C)(O)C(F)(F)F)CC2)n1 [Compound A86, (R)-3,3,3-Trifluoro-2-hydroxy-2-methyl-1-[4-[2-(4-methylthiazol-2-yl)-2H-pyrazol-3-yl]-1-piperidyl]propan-1-one] | 0.3 to 3 | < 0.3 | 3 to 50 |
| C[C@@H]1CN(C(=O)[C@@](C)(O)C(F)(F)F)CC[C@@H]1c1ccnn1[C@H]1CC[C@@H](O)CC1 [Compound A120, (R)-3,3,3-Trifluoro-2-hydroxy-1-{(3S,4S)-4-[2-(4-hydroxy-cyclohexyl)-2H-pyrazol-3-yl]-3-methyl-piperidin-1-yl}-2-methyl-propan-1-one] | < 0.3 | < 0.3 | 0.3 to 3 |
| Cc1ccc(-n2nccc2C2CCN(C(=O)[C@@](C)(O)C(F)(F)F)CC2)cc1 [Compound A1, (R)-3,3,3-trifluoro-2-hydroxy-2-methyl-1-[4-(2-p-tolyl-2H-pyrazol-3-yl)-piperidin-1-yl]-propan-1-one] | < 0.3 | < 0.3 | 0.3 to 3 |
| Cc1cc(-n2nccc2C2CCN(C(=O)[C@@](C)(O)C(F)(F)F)CC2)no1 [Compound A115, (R)-3,3,3-Trifluoro-2-hydroxy-2-methyl-1-{4-[2-(5-methyl-isoxazol-3-yl)-2H-pyrazol-3-yl]-piperidin-1-yl}-propan-1-one] | 0.3 to 3 | < 0.3 | 3 to 50 |
| C[C@@](O)(C(=O)N1CCC(c2ccnn2-c2cccc(Cl)c2)CC1)C(F)(F)F [Compound A12, (R)-1-{4-[2-(3-Chloro-phenyl)-2H-pyrazol-3-yl]-piperidin-1-yl}-3,3,3-trifluoro-2-hydroxy-2-methyl-propan-1-one] | 0.3 to 3 | < 0.3 | 3 to 50 |
| COCCn1nccc1C1CCN(C(=O)[C@@](C)(O)C(F)(F)F)CC1 [Compound A78, (R)-3,3,3-Trifluoro-2-hydroxy-1-[4-[2-(2-methoxyethyl)-2H-pyrazol-3-yl]-1-piperidyl]-2-methyl-propan-1-one] | 0.3 to 3 | < 0.3 | 3 to 50 |
| Cc1ccc(-n2nccc2C2CCN(C(=O)[C@@](C)(O)C(F)(F)F)CC2)c(F)c1 [Compound A16, (R)-3,3,3-Trifluoro-1-{4-[2-(2-fluoro-4-methyl-phenyl)-2H-pyrazol-3-yl]-piperidin-1-yl}-2-hydroxy-2-methyl-propan-1-one] | < 0.3 | < 0.3 | 0.3 to 3 |
| C[C@@](O)(C(=O)N1CCC(c2cc(C(F)(F)F)nn2-c2ccc(Cl)cc2)CC1)C(F)(F)F [Compound A35, (R)-1-{4-[2-(4-Chloro-phenyl)-5-trifluoromethyl-2H-pyrazol-3-yl]-piperidin-1-yl}-3,3,3-trifluoro-2-hydroxy-2-methyl-propan-1-one] | < 0.3 | < 0.3 | 0.3 to 3 |
| C[C@@](O)(C(=O)N1CCC(c2ccnn2-c2ncc(F)cc2F)CC1)C(F)(F)F [Compound A82, (R)-1-[4-[2-(3,5-Difluoro-2-pyridyl)-2H-pyrazol-3-yl]-1-piperidyl]-3,3,3-trifluoro-2-hydroxy-2-methyl-propan-1-one] | < 0.3 | < 0.3 | 0.3 to 3 |
